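Grown in 96-well plates, cells were treated for 48 hours with each compound at five concentrations. Insufficient inhibition: endpoint recorded as highest concentration tested. TGI denotes the concentration required for complete inhibition of growth.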
Columns and labels:
Assay in all cases: NCI anticancer screen, dose series, 48 h
CAKI-1 renal = tested on: CAKI-1 renal
UO-31 renal = tested on: UO-31 renal
OVCAR-4 ovarian = tested on: OVCAR-4 ovarian
A549 NSCLC = tested on: A549 NSCLC
HCC-2998 colon = tested on: HCC-2998 colon
NCI/ADR-RES ovarian = tested on: NCI/ADR-RES ovarian
MCF7 breast = tested on: MCF7 breast
NCI-H522 lung = tested on: NCI-H522 lung
UACC-257 melanoma = tested on: UACC-257 melanoma
SN12C renal = tested on: SN12C renal
MDA-MB-231 breast = tested on: MDA-MB-231 breast
SK-MEL-28 melanoma = tested on: SK-MEL-28 melanoma
ACHN renal = tested on: ACHN renal
SK-MEL-5 melanoma = tested on: SK-MEL-5 melanoma
HCT-116 colon = tested on: HCT-116 colon
UACC-62 melanoma = tested on: UACC-62 melanoma
SR leukemia = tested on: SR leukemia
U251 CNS = tested on: U251 CNS
MDA-MB-435 = tested on: MDA-MB-435
OVCAR-5 ovarian = tested on: OVCAR-5 ovarian
MDA-N = tested on: MDA-N
M14 melanoma = tested on: M14 melanoma
RXF 393 renal = tested on: RXF 393 renal
KM12 colon = tested on: KM12 colon
K-562 leukemia = tested on: K-562 leukemia
PC-3 prostate = tested on: PC-3 prostate
SNB-75 CNS = tested on: SNB-75 CNS
786-0 renal = tested on: 786-0 renal
HS 578T breast = tested on: HS 578T breast
BT-549 breast = tested on: BT-549 breast
T-47D breast = tested on: T-47D breast
OVCAR-8 ovarian = tested on: OVCAR-8 ovarian
SF-539 CNS = tested on: SF-539 CNS
A498 renal = tested on: A498 renal
NCI-H226 lung = tested on: NCI-H226 lung
HT29 colon = tested on: HT29 colon
HOP-62 NSCLC = tested on: HOP-62 NSCLC
SW-620 colon = tested on: SW-620 colon
HOP-92 NSCLC = tested on: HOP-92 NSCLC
NCI-H460 lung = tested on: NCI-H460 lung
HCT-15 colon = tested on: HCT-15 colon
SK-MEL-2 melanoma = tested on: SK-MEL-2 melanoma
TK-10 renal = tested on: TK-10 renal
SF-268 CNS = tested on: SF-268 CNS
CCRF-CEM leukemia = tested on: CCRF-CEM leukemia
MOLT-4 leukemia = tested on: MOLT-4 leukemia
EKVX NSCLC = tested on: EKVX NSCLC
HL-60(TB) leukemia = tested on: HL-60(TB) leukemia
LOX IMVI melanoma = tested on: LOX IMVI melanoma
NCI-H23 lung = tested on: NCI-H23 lung
COLO 205 colon = tested on: COLO 205 colon
SF-295 CNS = tested on: SF-295 CNS
SNB-19 CNS = tested on: SNB-19 CNS
DU-145 prostate = tested on: DU-145 prostate
IGROV1 ovarian = tested on: IGROV1 ovarian
OVCAR-3 ovarian = tested on: OVCAR-3 ovarian
MALME-3M melanoma = tested on: MALME-3M melanoma
SK-OV-3 ovarian = tested on: SK-OV-3 ovarian

Work on `CC(C)(C)c1ccc(-n2c3nc(=O)n(-c4ccccc4C(F)(F)F)c(=O)c-3cc3ccccc32)cc1` yielded a TGI (CAKI-1 renal) of 66.8 µM, a TGI (UO-31 renal) greater than 100 µM and a TGI (OVCAR-4 ovarian) greater than 100 µM. For the same compound, the TGI (A549 NSCLC) was greater than 100 µM, the TGI (HCC-2998 colon) was 28.4 µM and the TGI (NCI/ADR-RES ovarian) was 89.8 µM. The TGI (MCF7 breast) was 72.9 µM, the TGI (NCI-H522 lung) was 45.4 µM and the TGI (UACC-257 melanoma) was 48 µM. For the same compound, the TGI (SN12C renal) was 59.1 µM, the TGI (MDA-MB-231 breast) was 63 µM and the TGI (SK-MEL-28 melanoma) was 23.5 µM. It also gave a TGI (ACHN renal) of 60 µM, a TGI (SK-MEL-5 melanoma) of 29 µM and a TGI (HCT-116 colon) of 25.1 µM. It also gave a TGI (UACC-62 melanoma) of 33.8 µM, a TGI (SR leukemia) of 43.6 µM and a TGI (U251 CNS) of 29.6 µM. It also gave a TGI (MDA-MB-435) of 35.6 µM, a TGI (OVCAR-5 ovarian) of 55.2 µM and a TGI (MDA-N) of 74.8 µM. It also gave a TGI (M14 melanoma) of 32.3 µM, a TGI (RXF 393 renal) of 51.7 µM and a TGI (KM12 colon) of 37.3 µM. For the same compound, the TGI (K-562 leukemia) was 61.7 µM, the TGI (PC-3 prostate) was 51 µM and the TGI (SNB-75 CNS) was 71.3 µM. The TGI (786-0 renal) was greater than 100 µM, the TGI (HS 578T breast) was 68.1 µM and the TGI (BT-549 breast) was greater than 100 µM. The TGI (T-47D breast) was greater than 100 µM, the TGI (OVCAR-8 ovarian) was 84.6 µM and the TGI (SF-539 CNS) was 63.4 µM. For the same compound, the TGI (A498 renal) was 76.3 µM, the TGI (NCI-H226 lung) was 60.8 µM and the TGI (HT29 colon) was 37.5 µM. It also gave a TGI (HOP-62 NSCLC) of 40.3 µM, a TGI (SW-620 colon) of 62.8 µM and a TGI (HOP-92 NSCLC) of 51.7 µM. The TGI (NCI-H460 lung) was 16 µM, the TGI (HCT-15 colon) was 31.3 µM and the TGI (SK-MEL-2 melanoma) was 30.8 µM. It also gave a TGI (TK-10 renal) greater than 100 µM, a TGI (SF-268 CNS) greater than 100 µM and a TGI (CCRF-CEM leukemia) of 41.9 µM. It also gave a TGI (MOLT-4 leukemia) of 53 µM, a TGI (EKVX NSCLC) of 64.9 µM and a TGI (HL-60(TB) leukemia) of 36.1 µM. For the same compound, the TGI (LOX IMVI melanoma) was 28.6 µM, the TGI (NCI-H23 lung) was greater than 100 µM and the TGI (COLO 205 colon) was 43.7 µM. For the same compound, the TGI (SF-295 CNS) was 60.5 µM, the TGI (SNB-19 CNS) was greater than 100 µM and the TGI (DU-145 prostate) was greater than 100 µM. For the same compound, the TGI (IGROV1 ovarian) was greater than 100 µM and the TGI (OVCAR-3 ovarian) was 31.4 µM.

With `C=C[C@H]1CN2CCc3c([nH]c4cc(O)ccc34)[C@@H]2C[C@@H]1C[C@H]1c2[nH]c3ccccc3c2CCN1C` the TGI (CAKI-1 renal) was 14.6 µM, the TGI (UO-31 renal) was 4.81 µM and the TGI (OVCAR-4 ovarian) was 18.7 µM. The TGI (A549 NSCLC) was 15 µM, the TGI (MALME-3M melanoma) was 26.9 µM and the TGI (HCC-2998 colon) was 3.44 µM. The TGI (NCI/ADR-RES ovarian) was 24.6 µM, the TGI (MCF7 breast) was 6.01 µM and the TGI (NCI-H522 lung) was 8.29 µM. It also gave a TGI (UACC-257 melanoma) of 3.98 µM, a TGI (SN12C renal) of 13.3 µM and a TGI (MDA-MB-231 breast) of 16.9 µM. It also gave a TGI (SK-MEL-28 melanoma) of 3.27 µM, a TGI (ACHN renal) of 10.1 µM and a TGI (SK-MEL-5 melanoma) of 3.14 µM. The TGI (HCT-116 colon) was 5.94 µM, the TGI (UACC-62 melanoma) was 8.46 µM and the TGI (SR leukemia) was 6.41 µM. The TGI (U251 CNS) was 3.24 µM, the TGI (MDA-MB-435) was 3.76 µM and the TGI (OVCAR-5 ovarian) was 31.4 µM. For the same compound, the TGI (MDA-N) was 3.22 µM, the TGI (M14 melanoma) was 3.14 µM and the TGI (KM12 colon) was 9.13 µM. It also gave a TGI (K-562 leukemia) of 7.88 µM, a TGI (PC-3 prostate) of 9.69 µM and a TGI (SNB-75 CNS) of 6.62 µM. The TGI (786-0 renal) was 3.36 µM, the TGI (HS 578T breast) was 11.1 µM and the TGI (BT-549 breast) was 27.2 µM. The TGI (T-47D breast) was 36.1 µM, the TGI (OVCAR-8 ovarian) was 11.8 µM and the TGI (SF-539 CNS) was 3.33 µM. For the same compound, the TGI (A498 renal) was 5.83 µM, the TGI (NCI-H226 lung) was 36.3 µM and the TGI (HT29 colon) was 6.4 µM. It also gave a TGI (HOP-62 NSCLC) of 9.37 µM, a TGI (SW-620 colon) of 3.87 µM and a TGI (HOP-92 NSCLC) of 8.08 µM. It also gave a TGI (NCI-H460 lung) of 4.96 µM, a TGI (SK-OV-3 ovarian) of 27.4 µM and a TGI (HCT-15 colon) of 6.54 µM. It also gave a TGI (SK-MEL-2 melanoma) of 7.65 µM, a TGI (TK-10 renal) of 22.1 µM and a TGI (SF-268 CNS) of 15.8 µM. For the same compound, the TGI (CCRF-CEM leukemia) was 3.98 µM, the TGI (MOLT-4 leukemia) was 12.4 µM and the TGI (EKVX NSCLC) was 20.1 µM. It also gave a TGI (HL-60(TB) leukemia) of 7.69 µM, a TGI (LOX IMVI melanoma) of 9.67 µM and a TGI (NCI-H23 lung) of 31.8 µM. It also gave a TGI (COLO 205 colon) of 3.31 µM, a TGI (SF-295 CNS) of 9.15 µM and a TGI (SNB-19 CNS) of 17.6 µM. The TGI (DU-145 prostate) was 33.9 µM, the TGI (IGROV1 ovarian) was 3.39 µM and the TGI (OVCAR-3 ovarian) was 9.55 µM.
